In ChEMBL document CHEMBL1201862, “PubChem BioAssay data set” (2004):
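The compound was tested at five concentrations on cells cultured in 96-well plates, with a 48-hour exposure period. At the GI50, growth is halved.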 Calls of active or inactive are those of the source. No stated cut-off is given here; in the data, active = GI50 up to about 1.1 µM and inactive = higher.

Experiments:
Experiment in all cases: NCI-60 cell line screen, 48 h
U-251 = tested on: U-251
A498 = tested on: A498
CCRF-CEM = tested on: CCRF-CEM
ACHN = tested on: ACHN
OVCAR-4 = tested on: OVCAR-4
EKVX = tested on: EKVX
RXF 393 = tested on: RXF 393
SW-620 = tested on: SW-620
LOX IMVI = tested on: LOX IMVI
UACC-257 = tested on: UACC-257
SK-MEL-28 = tested on: SK-MEL-28
786-0 = tested on: 786-0
T47D = tested on: T47D
Hs-578T = tested on: Hs-578T
DU-145 = tested on: DU-145
NCI/ADR-RES = tested on: NCI/ADR-RES
HCT-15 = tested on: HCT-15
BT-549 = tested on: BT-549
MDA-MB-231 = tested on: MDA-MB-231

| SMILES | GI50 (U-251) | GI50 (A498) | GI50 (CCRF-CEM) | GI50 (ACHN) | GI50 (OVCAR-4) | GI50 (EKVX) | GI50 (RXF 393) | GI50 (SW-620) | GI50 (LOX IMVI) | GI50 (UACC-257) | GI50 (SK-MEL-28) | GI50 (786-0) | GI50 (T47D) | GI50 (Hs-578T) | GI50 (DU-145) | GI50 (NCI/ADR-RES) | GI50 (HCT-15) | GI50 (BT-549) | GI50 (MDA-MB-231) |
| --- | --- | --- | --- | --- | --- | --- | --- | --- | --- | --- | --- | --- | --- | --- | --- | --- | --- | --- | --- |
| O=C1N[C@@H]2CCCC[C@@H]2C12CCCCC2 | > 100 µM (inactive) | > 100 µM (inactive) | > 100 µM (inactive) | > 100 µM (inactive) | > 100 µM (inactive) | > 100 µM (inactive) | > 100 µM (inactive) | > 100 µM (inactive) | > 100 µM (inactive) | > 100 µM (inactive) | > 100 µM (inactive) | > 100 µM (inactive) | – | – | – | – | – | – | – |
| COc1cccc(C2c3cc4c(cc3OC(N3CCOCC3)C2C)OCO4)c1OC (stereo not drawn) | – | – | 4.52 µM (inactive) | 5.33 µM (inactive) | – | 18.1 µM (inactive) | – | 5.4 µM (inactive) | 3.06 µM (inactive) | 8.02 µM (inactive) | 13.4 µM (inactive) | 5.22 µM (inactive) | 3.2 µM (inactive) | 4.26 µM (inactive) | 3.21 µM (inactive) | 4.58 µM (inactive) | 4.36 µM | – | – |
| CC(C)(C)[Si](C)(C)OCC1OC(n2ccc(=O)[nH]c2=O)C(O[Si](C)(C)C(C)(C)C)/C1=N/O (stereo not drawn) | 4.25 µM (inactive) | 4.97 µM (inactive) | 3.29 µM (inactive) | 3.2 µM (inactive) | 4.25 µM (inactive) | 4.13 µM (inactive) | 8.39 µM (inactive) | 4.38 µM (inactive) | 4.67 µM (inactive) | 4.17 µM (inactive) | 3.3 µM (inactive) | 2.64 µM (inactive) | 6.22 µM (inactive) | – | 9.29 µM (inactive) | 2.49 µM (inactive) | 3.26 µM | 7.6 µM (inactive) | 12.4 µM (inactive) |
| COc1nc2ccc(COc3ccc(C(=O)O)cc3)cc2nc1OC | 87.1 µM (inactive) | 95.7 µM (inactive) | 36.6 µM (inactive) | 80.4 µM (inactive) | > 100 µM (inactive) | > 100 µM (inactive) | – | 83.8 µM (inactive) | 54.1 µM (inactive) | > 100 µM (inactive) | 66.4 µM (inactive) | > 100 µM (inactive) | > 100 µM (inactive) | – | > 100 µM (inactive) | 88.1 µM (inactive) | 65.6 µM | – | > 100 µM (inactive) |
| CC(C)(C)c1ccc(O)c(C(c2ccc([N+](=O)[O-])cc2)c2cc(C(C)(C)C)ccc2O)c1 | 2.28 µM (inactive) | 2.11 µM (inactive) | 2.98 µM (inactive) | 1.85 µM (inactive) | 1.85 µM (inactive) | 1.97 µM (inactive) | 2.07 µM (inactive) | 2.11 µM (inactive) | – | 1.79 µM (inactive) | 1.74 µM (inactive) | 2.04 µM (inactive) | 2.65 µM (inactive) | 3.61 µM (inactive) | 2.39 µM (inactive) | 2.73 µM (inactive) | 2.13 µM | – | 1.87 µM (inactive) |
| OCN(CO)c1ccc2c(c1)Cc1cc(F)ccc1-2 | 17.9 µM (inactive) | – | – | 17.6 µM (inactive) | 17.8 µM (inactive) | 14.7 µM (inactive) | 24 µM (inactive) | 12.4 µM (inactive) | 17.9 µM (inactive) | 18.7 µM (inactive) | 24 µM (inactive) | 30.1 µM (inactive) | 17.8 µM (inactive) | 12 µM (inactive) | 23.2 µM (inactive) | 20.2 µM (inactive) | 19.2 µM | – | 16.4 µM (inactive) |
| O=C1CCC[C@H]2O[C@@H](COCc3ccccc3)C[C@@H]12 | > 100 µM (inactive) | > 100 µM (inactive) | > 100 µM (inactive) | > 100 µM (inactive) | > 100 µM (inactive) | – | – | > 100 µM (inactive) | – | > 100 µM (inactive) | > 100 µM (inactive) | > 100 µM (inactive) | > 100 µM (inactive) | > 100 µM (inactive) | > 100 µM (inactive) | > 100 µM (inactive) | > 100 µM | – | > 100 µM (inactive) |
| CC(=O)OC1CCC2C3CCc4c(C)ccc(OS(=O)(=O)c5ccccc5)c4C3CCC12C (stereo not drawn) | 13.6 µM (inactive) | 32.5 µM (inactive) | 19.1 µM (inactive) | 35.9 µM (inactive) | 21.8 µM (inactive) | 46.9 µM (inactive) | 31.1 µM (inactive) | 63.5 µM (inactive) | 7.41 µM (inactive) | 73.3 µM (inactive) | > 100 µM (inactive) | 6.76 µM (inactive) | – | – | 33.1 µM (inactive) | – | 7.73 µM | 23.7 µM (inactive) | 19.3 µM (inactive) |
| C=CCn1c2ccccc2c2c(C)c3cnccc3c(C)c21 | 11.2 µM (inactive) | 6.34 µM (inactive) | 4.12 µM (inactive) | – | 8.97 µM (inactive) | 12.1 µM (inactive) | 4.27 µM (inactive) | 6.61 µM (inactive) | 6.82 µM (inactive) | 7.23 µM (inactive) | 14.8 µM (inactive) | – | – | – | – | 4.91 µM (inactive) | 6.92 µM | – | – |
| COc1ccccc1/C=C1\SC(=S)N(/C=C2\C(=O)Oc3ccccc3C2=O)C1=O | 34.3 µM (inactive) | – | 36.2 µM (inactive) | 47.5 µM (inactive) | 33.2 µM (inactive) | 24.1 µM (inactive) | – | 43.2 µM (inactive) | 34.9 µM (inactive) | 22.9 µM (inactive) | – | 34.8 µM (inactive) | – | 33.5 µM (inactive) | 33.3 µM (inactive) | 29.3 µM (inactive) | 28.1 µM | 21.1 µM (inactive) | 23 µM (inactive) |
| O=c1c2nn[nH]c2nc2n1CC(c1ccccc1)S2 (stereo not drawn) | > 100 µM (inactive) | > 100 µM (inactive) | > 100 µM (inactive) | > 100 µM (inactive) | > 100 µM (inactive) | > 100 µM (inactive) | 29 µM (inactive) | > 100 µM (inactive) | > 100 µM (inactive) | > 100 µM (inactive) | > 100 µM (inactive) | > 100 µM (inactive) | > 100 µM (inactive) | – | > 100 µM (inactive) | > 100 µM (inactive) | > 100 µM | > 100 µM (inactive) | > 100 µM (inactive) |
| Oc1ccc(Cl)cc1-c1cc(-c2ccccc2)nc(S)n1 | 17.4 µM (inactive) | 41.6 µM (inactive) | > 100 µM (inactive) | 30.3 µM (inactive) | > 100 µM (inactive) | 4.52 µM (inactive) | 71.3 µM (inactive) | > 100 µM (inactive) | > 100 µM (inactive) | > 100 µM (inactive) | > 100 µM (inactive) | 26.3 µM (inactive) | > 100 µM (inactive) | 29.2 µM (inactive) | > 100 µM (inactive) | 97.9 µM (inactive) | 94 µM | – | 30.5 µM (inactive) |
| S=C(c1c[nH]c2ccccc12)N1CCCCC1 | 64.9 µM (inactive) | > 100 µM (inactive) | 89.9 µM (inactive) | > 100 µM (inactive) | – | 85.9 µM (inactive) | 62.5 µM (inactive) | > 100 µM (inactive) | > 100 µM (inactive) | > 100 µM (inactive) | > 100 µM (inactive) | > 100 µM (inactive) | – | > 100 µM (inactive) | > 100 µM (inactive) | 66.5 µM (inactive) | 82.2 µM | 92.9 µM (inactive) | > 100 µM (inactive) |
